Assay results taken from patent publication US7012042B1, “Methods and products to protect against root intrusion and plant and root growth” (Growguard, LLC, Inc., priority 2002, dated 2006).

Tests used:
[1] = Solubility of Trifluralin in methacrylate plasticizer/monomers; format: physicochemical; settings: in ethyl methacrylate and lauryl methacrylate
Protocol: A novel solution involving the polymerization of the plasticizer that remains within the fiber (FIG. 8) has been developed. Thus, a plasticizer is chosen that also is a monomer. It was determined that Trifluralin is quite soluble in ethyl methacrylate and lauryl methacrylate. […] Thus, technical feasibility is evident up to this point in the process.

plant root = settings: cited from earlier work

CCCN(CCC)c1c([N+](=O)[O-])cc(C(F)(F)F)cc1[N+](=O)[O-] [Trifluralin]
solubility [1]: quite soluble | concentration highly effective in preventing root elongation (plant root; 95% of the plants tested, prior efforts): 2–5 ppm | concentration required to inhibit root growth (plant root; a few of the plants tested, prior efforts): 10 ppm | concentration sufficient to inhibit root growth (plant root; in gels and water-saturated soils adjacent to a pipe leakage area): 5–10 ppm
